Reference: patent US20160000787A1, “INHIBITORS OF CDK8/19 FOR USE IN TREATING ESTROGEN RECEPTOR POSITIVE BREAST CANCER” (SENEX BIOTECHNOLOGY, INC., priority 2013, published 2016)

Experiments:
Assay type in all cases: cell-based
[1] = test system: TFF1 expression in estrogen-depleted MCF7 cells; assay: QPCR analysis of estrogen-inducible gene expression; conditions: two concentrations of Senexin A, with or without E2
Text: (§1) Rae et al., (2005) used microarray profiling to analyze the effects of E2 and ER antagonists on gene expression in three ER+BrCa cell lines, MCF7, T47D and BT-474. […] The cytokine CXCL12 was also shown to mediate the mitogenic effect of E2 (Sauve et al., 2009) and, together with its receptor CXCR4, to be a key determinant of metastasis in cancers of the breast and other organs (Muller et al., 2001; Rhodes et al., 2011). […] The effect of Senexin A on CXCL12, a known mediator of metastasis, is of particular interest as a possible cause of the association of CDK8 expression with shorter RFS.

[2] = test system: GREB1 expression in estrogen-depleted MCF7 cells; assay: as above; conditions: two concentrations of Senexin A, with or without E2
Text: as §1

[3] = test system: CXCL12 expression in estrogen-depleted MCF7 cells; assay: as above; conditions: two concentrations of Senexin A, with or without E2
Text: as §1

[4] = test system: MCF7-1pE cells; assay: Growth inhibition, 6-day treatment, Coulter counter; conditions: 6 days
Text: (§2) Both MCF7-1pE and MCF7-Veh are resistant to tamoxifen and MCF7-Veh is also resistant to fulvestrant.

[5] = test system: MCF7-Veh cells; assay: as above; conditions: 6 days
Text: as §2

[6] = test system: T47D cells; assay: as above; conditions: 6 days
Text: as §2

[7] = test system: MCF7 cells; assay: as above; conditions: 6 days
Text: as §2

[8] = test system: BT474 cells; assay: as above; conditions: 6 days
Text: as §2

[9] = test system: ER-dependent ERE-containing promoter in T47D-ER/Luc cells; assay: ER-dependent ERE promoter luciferase reporter assay; conditions: different concentrations; 10 nM E2 added 1 h later; read 18 hrs later
Experimental: To determine whether the effect of CDK8 on ER-inducible gene expression is mediated through inhibition of the transcriptional effect of ER, which is exerted through ER binding to the ERE promoter element, a T47D-based reporter cell line was used. The cell line T47D-ER/Luc (obtained from Signosis) expresses firefly luciferase from the ER-dependent ERE-containing promoter. The reporter cell line was estrogen-depleted, then Senexin A was added at different concentrations, and one hour later 10 nM E2 was added. 18 hrs later, cells were counted and luciferase activity was measured.

[10] = test system: T47D cells; assay: Time course of cell growth over 7 days, Coulter counter; conditions: different concentrations
Text: (§3) Senexin A alone inhibited cell growth, with the strongest effects observed in the estrogen-dependent lines T47D and parental MCF7 and the weakest effects in cell lines that are fully or partially estrogen-independent (MCF7-Veh, MCF7-1p).

[11] = test system: MCF7 cells; assay: as above; conditions: different concentrations
Text: as §3

[12] = test system: BT474 cells; assay: as above; conditions: different concentrations
Text: as §3

[13] = test system: estrogen-depleted MCF7 cells; assay: Estrogen (E2) mitogenic stimulation assay, flow cytometric cell counting; conditions: for effect on E2-stimulated cell growth: 10 nM E2; for decrease of cell number: 4 days after E2 addition, fulvestrant 1 nM and/or Senexin A 1 μM
Experimental: To test the effect of CDK8/19 inhibition on the mitogenic effect of estrogen in estrogen-responsive BrCa cells, MCF7 cells (ER+BrCa line) were placed into estrogen-depleted phenol red-free media with 10% charcoal-stripped serum. Under these conditions cells are largely but not completely estrogen-depleted (full depletion would require adapting the cells to low serum, since the cells can synthesize estrogen from serum components). Cells were then plated in the presence or absence of Senexin A (at 1 μM and 5 μM concentrations), and either 10 nM of the estrogen 17-β-estradiol (E2) or vehicle control were added on the following day. Cell growth was measured by flow cytometric counting of live (PI-negative) and dead (PI-positive) cells over 4 days.
The interaction between Senexin A and fulvestrant in MCF7 cells was investigated in the estrogen (E2) mitogenic stimulation assay, carried out as described in example 1, with the cell number measured by flow cytometry 4 days after E2 addition.

[14] = test system: MCF7-1pE cells; assay: Long-term (11-day) drug treatment, crystal violet staining
[15] = test system: MCF7-Veh cells; assay: as above
[16] = 144 h, TAM 1 μM, alone or with SenA 5 μM, read-out: % growth inhibition relative to control
[17] = 144 h, TAM 5 μM, alone or with SenA 5 μM, read-out: % growth inhibition relative to control
[18] = Homo sapiens, 144 h, TAM 1 μM, alone or with SenA 5 μM, read-out: % growth inhibition relative to control
[19] = Homo sapiens, 144 h, TAM 5 μM, alone or with SenA 5 μM, read-out: % growth inhibition relative to control
[20] = 144 h, FUL 1 nM, alone or with SenA 5 μM, read-out: % growth inhibition relative to control
[21] = 144 h, FUL 10 nM, alone or with SenA 5 μM, read-out: % growth inhibition relative to control
[22] = Homo sapiens, 144 h, FUL 1 nM, alone or with SenA 5 μM, read-out: % growth inhibition relative to control
[23] = Homo sapiens, 144 h, FUL 10 nM, alone or with SenA 5 μM, read-out: % growth inhibition relative to control

In the case of `N#Cc1ccc2ncnc(NCCc3ccccc3)c2c1` [Senexin A], the “TFF1 expression (QPCR)” value [1] is reported as “inhibited”, the “GREB1 expression (QPCR)” value [2] is reported as “inhibited” and the “CXCL12 expression (QPCR)” value [3] is reported as “inhibited”. The “% growth inhibition relative to control” value ([4]; SenA 5 μM) was 19.1%, the “% growth inhibition relative to control” value ([5]; SenA 5 μM) was 15.5% and the “% growth inhibition relative to control” value ([6]; SenA 5 μM) was 48%. The “% growth inhibition relative to control” value ([7]; SenA 5 μM) was 37%, the “% growth inhibition relative to control” value ([8]; SenA 5 μM) was 23.9% and the “transcription from ER-dependent promoter (luciferase activity)” value [9] was “strongly inhibited”. For the same molecule, the “growth inhibition, time course” value [10] was “concentration-dependent growth inhibition”, the “growth inhibition, time course” value [11] was “concentration-dependent growth inhibition” and the “growth inhibition, time course” value [12] was “concentration-dependent growth inhibition”. For the same molecule, the “effect on E2-stimulated cell growth” value ([13]; 1 μM Senexin A, over 4 days) was “partial effect”, the “effect on E2-stimulated cell growth” value ([13]; 5 μM Senexin A, over 4 days) was “abolished” and the “effect on cell growth without E2 addition” value ([13]; 5 μM Senexin A, no E2, over 4 days) was “inhibited cell growth without E2 addition but to a lesser extent”. The “decrease of cell number” value [13] was 5%, the “nature of effect / induction of cell death (PI-positive cells)” value ([13]; Senexin A 1 μM and 5 μM, over 4 days) was “cytostatic and were not associated with any significant induction of cell death” and the “potentiation of fulvestrant effects” value [14] was “especially apparent”. For the same molecule, the “potentiation of fulvestrant effects” value [15] was “especially apparent”.
For `CC/C(=C(\c1ccc(O)cc1)c1ccc(OCCN(C)C)cc1)c1ccccc1` [TAM, 4-OH tamoxifen], the inhibition at 1 µM [4, 16] was -1.3%, the inhibition at 5 µM [4, 17] was 1.5% and the inhibition at 1 µM [5, 16] was 2.6%. For the same molecule, the inhibition at 5 µM [5, 17] was 1%, the inhibition at 1 µM [6, 18] was 54.6% and the inhibition at 5 µM [6, 19] was 62.3%. For the same molecule, the inhibition at 1 µM [7, 18] was 34.8%, the inhibition at 5 µM [7, 19] was 50.7% and the inhibition at 1 µM ([8]; Homo sapiens, BT-474, 144 h, TAM 1 μM, alone or with SenA 5 μM, read-out: % growth inhibition relative to control) was 28.8%. For the same molecule, the inhibition at 5 µM ([8]; Homo sapiens, BT-474, 144 h, TAM 5 μM, alone or with SenA 5 μM, read-out: % growth inhibition relative to control) was 42.3%.
`CN1CCN(C(=O)c2ccc3cc(CCNc4ncnc5ccc(C#N)cc45)ccc3c2)CC1` [Senexin B] was tested, and the “growth inhibition, time course” value [10] was “concentration-dependent growth inhibition”, the “growth inhibition, time course” value [11] was “concentration-dependent growth inhibition” and the “growth inhibition, time course” value [12] was “concentration-dependent growth inhibition”.
`C[C@]12CC[C@@H]3c4ccc(O)cc4C[C@@H](CCCCCCCCC[S+]([O-])CCCC(F)(F)C(F)(F)F)[C@H]3[C@@H]1CC[C@@H]2O` (stereo partly shown) [FUL, fulvestrant] was tested, and the inhibition at 0.001 µM [4, 20] was 49.7%, the inhibition at 0.01 µM [4, 21] was 57.2% and the inhibition at 0.001 µM [5, 20] was 12.4%. It also gave an inhibition at 0.01 µM [5, 21] of 28%, an inhibition at 0.001 µM [6, 22] of 56.5% and an inhibition at 0.01 µM [6, 23] of 58.2%. The inhibition at 0.001 µM [7, 22] was 62%, the inhibition at 0.01 µM [7, 23] was 63.6% and the inhibition at 0.001 µM ([8]; Homo sapiens, BT-474, 144 h, FUL 1 nM, alone or with SenA 5 μM, read-out: % growth inhibition relative to control) was 17.7%. The inhibition at 0.01 µM ([8]; Homo sapiens, BT-474, 144 h, FUL 10 nM, alone or with SenA 5 μM, read-out: % growth inhibition relative to control) was 22.6% and the “decrease of cell number” value [13] was 27%.
